Test results reported in US20110065919A1, “5-Substituted Indol-3-Carboxylic Acid Derivatives Exhibiting Antiviral Activity a Method for the Production and Use Thereof” (priority 2007, published 2011).
≈ marks a conversion by molar mass, not a printed value. Like-named read-outs stand apart in the source and are kept apart here.

Key:
[1] = system: influenza A/New Caledonia/20/99 (H1N1) virus reference strain; experiment: microbe, parasite or virus in culture; type: cell-based; details: for Activity at 10 μg/mL / specific activity in relation to influenza A virus reference strain (H1N1), in words / MIC50: MDCK cells; for MIC50: concentration inhibiting viral reproduction by 50%; for Chemotherapeutic Index: ratio of the MTC to the MIC50
[2] = system: MDCK tissue culture cells; experiment: Cytotoxic action, maximal tolerated concentration in MDCK tissue culture cells
[3] = system: influenza A/Aichi/2/69 (H3N3) virus; experiment: Murine influenza pneumonia model; type: in vivo, mice; details: for Mortality reduction: versus infected control; for Survived: number of mice surviving, n=10, 60 mg/kg/day
Method: (§1) 2. Determination of the efficacy of the compounds in the murine influenza pneumonia model.
(§2) The mice were infected intranasally under light ether anesthesia with the influenza A/Aichi/2/69 ([…]) virus. […] The efficacy of the action of the compounds in the influenza pneumonia model were assessed according to the number of mice surviving after infection with the virus and the increase in mean life span
(§3) The mean life span of the mice was calculated according to the following formula: MSD [mean survival day]=Σ(f(d−1)[…], where f is the number of mice dying on day d; the surviving mice were also included in f, and d in this case was 15; n is the number of mice in the group.

[4] = system: influenza A/Aichi/2/69 virus; experiment: Murine influenza pneumonia model; type: in vivo, mice; details: mean life span, 60 mg/kg/day, survivors counted with d=15
Method: as §1, §2, §3

COc1cc2c(C(=O)N3CCCCC3)c(CSc3ccccc3)n(C)c2cc1Br [C]
Activity at 10 μg/mL [1]: 52.1 | specific activity in relation to influenza A virus reference strain (H1N1), in words [1]: low activity | MIC50 [1]: 9.2 µg/mL (≈ 19.4 µM) | Chemotherapeutic Index [1]: 2.7 | MTC of the Compounds [2]: 25 µg/mL

COc1cc2c(C(=O)N3CCCC3)c(CSc3ccccc3)n(C)c2cc1Br [B]
efficacy at 10 μg/mL compared with arbidol, in words [1]: did not differ from it | Activity at 10 μg/mL [1]: 100.0 | specific activity in relation to influenza A virus reference strain (H1N1), in words [1]: high specific activity | MIC50 [1]: 2.0 µg/mL (≈ 4.35 µM) | Chemotherapeutic Index [1]: 7.5 | MTC of the Compounds [2]: 15 µg/mL

CCOC(=O)c1c(CSc2ccccc2)n(C)c2cc(Br)c(O)c(CN(C)C)c12 [Arbidol, 1-methyl-2-phenylthiomethyl-3-carbethoxy-4-dimethylaminomethyl-5-hydroxy-6-bromindol, reference compound]
Activity at 10 μg/mL [1]: 100.0 | MIC50 ([1]; Influenza A virus, H1N1, read-out: MIC50): 6 µg/mL (≈ 12.6 µM) | Chemotherapeutic Index [1]: 6.7 | Mortality ([3]; 60 mg/kg/day): 20% | Mortality reduction ([3]; 60 mg/kg/day): 61% | Survived [3]: 8 | Life Span [4]: 12.2 days | MTC of the Compounds [2]: 40 µg/mL

1-{6-Bromo-1-methyl-5-methoxy-2-(phenylthio)methyl-1-H-indol-3-yl}-benzylpiperazine
efficacy at 10 μg/mL compared with arbidol, in words [1]: inferior to arbidol in efficacy | Activity at 10 μg/mL [1]: 64.4 | specific activity in relation to influenza A virus reference strain (H1N1), in words [1]: high specific activity | MIC50 [1]: 5.8 µg/mL | Chemotherapeutic Index [1]: 6.9 | Mortality ([3]; 60 mg/kg/day): 20% | chemotherapeutic action compared with arbidol, in words ([3]; 60 mg/kg/day): not inferior to arbidol | Mortality reduction ([3]; 60 mg/kg/day): 61% | Survived [3]: 8 | Life Span [4]: 13.1 days | MTC of the Compounds [2]: 40 µg/mL
